Source: US9943558B2, “Compositions and methods for treating multi-drug resistant malaria” (Febris Bio-Tech Limited, priority 2011, dated 2018)
≈ marks a conversion by molar mass, not a printed value. Read-outs that look alike come from different tables or passages of the source. Values belong to the molecule of their own block, whether it stands above or below them.

What was measured:
[1] = in vivo; cited from earlier work
P. falciparum DD2 = experiment: Checkerboard assay (FIC index); type: cell-based, Plasmodium falciparum; details: for MIC: Plasmodium falciparum, DD2, each component used alone
Description: Checkerboard assay. The anti-malaria activity of Luohan fruit extracts and Stevia leaf extracts in vitro were determined and predicted using the malarial strain P. falciparum DD2. Samples are mixed into 1:2 series dilutions and the FIC index (FICI) is calculated. (Rand, K. H., Houck, H. J., Brown, P. et al. “Reproducibility of the microdilution checkerboard method for antibiotic synergy,” Antimicrobial Agents & Chemotherapy (1993) 37:613-5; Eliopoulos, G. M., Moellering R. C. in Antibiotics in Laboratory Medicine, ed. Lorian V (Williams & Wilkins, Baltimore, Md., 1991), pp 432-492; Ghannoum, M. A., Fu, Y., Ibrahim, A. S., Mortara, L. A., Shafiq, M. C., Edwards, J. E., Jr., Criddle, R. S. Antimicrob. Agents Chemother. (1995) 39:2459-2465; Barchiesi, F., DiFrancesco, L. F., Scalise, G. “In Vitro Activities of Terbinafine in Combination With Fluconazole and Itraconazole Against Isolates of Candida albicans With Reduced Susceptibility to Azoles,” Antimicrob. Agents Chemother. (1997) 41:1812-1814. Each of the foregoing references are incorporated herein by reference in their entirety.)
To determine whether the readout of the combination therapy is additive, synergistic, or indifferent, the FIC index (FICI) was calculated by the use of the checkerboard assay. The FICI represents the sum of the FICs of each drug tested, where the FIC (fractional inhibitory concentration) is determined for each drug by dividing the MIC of each drug when used in combination by the MIC of each drug when used alone. FICI=(MICdrug A in combination/MICdrug A alone)+(MICdrug B in combination/MICdrug B alone). The preassumptions are that (i) testing uses concentrations separated by a factor of 2, and (ii) one-dilution-step MIC changes are within the range of experimental error. Other sophisticated methods have also been used; for example, a contour surface-plot methodology was used in characterizing the nature of three antifungal agents in combinations using various concentrations of each agent.

[2] = cited from earlier work
[3] = system: Plasmodium falciparum multidrug resistant strain (MDR) 7G8; experiment: In vitro growth inhibition of P. falciparum 7G8, infection rate by Giemsa-stained smear (Example 1B); type: cell-based; details: 7G8, read-out: Antimalarial activity, IC50
Text: The Plasmodium falciparum multidrug resistant strain (MDR) 7G8, (obtained from the Malaria Research and Reference Reagent Resource Centre (MR4), Manassas, Va., USA), was in vitro cultured in RMPI 1640 cell culture medium (supplemented with 10% Human Serum) with PCV (packed cell volume) at 5%. The P. falciparum was cell synchronized by adding 5% of D-sorbitol, and synchronized cells were then spread on culture plates after achieving ring form phase, with an initial infection rate of 1% and PCV at 5%.
(§1) 10 μl active ingredient solution plus 90 μl P. falciparum culture medium were spread on each well.

[4] = system: P. falciparum drug-sensitive (DS) clone 3D7; experiment: In vitro growth inhibition IC50, Giemsa-stained smears (Example 1D), clone 3D7; type: cell-based; details: Plasmodium falciparum
Description: (§2) The Luo Han Guo general extract (Sample 8) was prepared by extraction of dried Luo Han fruit with hot water as in Example 1A, and then fractionated with EtOAc and n-butanol respectively as in Example 1A to yield 3 fractions corresponding to Samples 5a-7a. Samples 6a-7a also correspond to “compound B” and “compound A” respectively.
(§3) The P. falciparum was cell synchronized by adding 5% of D-sorbitol, and synchronized cells were then spread on culture plates after achieving ring form phase, with an initial infection rate of 1% and PCV at 5%.
as §1
(§4) Drug-sensitive (DS) clone 3D7 and multi-drug resistant (MDR) clone Dd2 of Plasmodium falciparum, obtained from the Malaria Research and Reference Reagent Resource Centre (MR4), Manassas, Va., USA, were maintained continuously in blood group O+ human erythrocytes and 10% human serum in a gas mixture consisting of 7% CO2, 5% O2 and 88% N2.
(§5) In vitro inhibitory concentration assays. P. falciparum clones 3D7 and Dd2 were maintained continuously in blood group O+ human erythrocytes and 10% human serum in a gas mixture consisting of 7% CO2, 5% O2, and 88% N2, synchronized by serial treatments with 5% D-sorbitol. […]

[5] = system: P. falciparum multi-drug resistant (MDR) clone Dd2; experiment: In vitro growth inhibition IC50, Giemsa-stained smears (Example 1D), clone Dd2; type: cell-based; details: Plasmodium falciparum
Description: as §2, §3, §1, §4, §5

P. falciparum clone 3D7 = experiment: Malaria SYBR Green I-based fluorescence method, clone 3D7; type: cell-based; details: Plasmodium falciparum, 3D7, 72 h, read-out: In vitro susceptibility (IC50) 3D7
Description: (§6) 1803-1806, Vol. 48, No. 5, with slight modifications. Drug solutions were serially diluted with culture medium and distributed to asynchronous parasite cultures in 96-well plates in quadruplicate to achieve 0.2% parasitaemia with a 2% haematocrit in a total volume of 100 μL. The plates were then incubated for 72 h at 37° C. Following incubation, 100 μL of lysis buffer with 0.2 μL/mL SYBR Green 1 was added to each well. The plates were incubated at 37° C. for 1 h in the dark and then placed in a 96-well fluorescence plate reader (Multilabel HTS Counter; PerkinElmer, Waltham, Mass., USA) with excitation and emission wavelengths at 497 nm and 520 nm, respectively, for measurement of fluorescence. The 50% inhibitory concentration (IC50) was determined by non-linear regression analysis of logistic dose—response curves using GraphPad Prism software (GraphPad Software Inc., La Jolla, Calif.). This example serves as a comparative method.
(§7) Next, the assay portion of procedure of Example 1C was performed using Coartem as a positive control.

P. falciparum clone Dd2 = experiment: Malaria SYBR Green I-based fluorescence method, clone Dd2; type: cell-based; details: Plasmodium falciparum, DD2, 72 h, read-out: In vitro susceptibility (IC50) Dd2
Description: as §6, §7

[6] = system: P. falciparum drug-sensitive clone 3D7; experiment: In vitro inhibitory concentration assay, light microscopy of Giemsa-stained smears (Example 1C), clone 3D7; type: cell-based; details: Plasmodium falciparum, 10^−4 g/L, read-out: Percent of Inhibition (%, Mean ± SD) 3D7
Description: (§8) Parasite cultivation. Drug-sensitive clone 3D7 and multi-drug resistant (MDR) clone Dd2 of Plasmodium falciparum, obtained from the Malaria Research and Reference Reagent Resource Centre (MR4), Manassas, Va., USA, were maintained continuously in blood group O+ human erythrocytes and 10% human serum in a gas mixture consisting of 7% CO2, 5% O2 and 88% N2.
(§9) The stock solutions of Example 1A, and CQ employed as the positive control (prepared as a 10 mM stock solution in PBS), were stored at −20° C. Each working solution was freshly prepared in cell culture medium.
(§10) In vitro inhibitory concentration assays. P. falciparum clones 3D7 and Dd2 were maintained continuously in blood group O+ human erythrocytes and 10% human serum in a gas mixture consisting of 7% CO2, 5% O2, and 88% N2, synchronized by serial treatments with 5% D-sorbitol. In vitro growth inhibition of ring-stage-parasitized erythrocytes starting at 1% parasitemia and 2.5% hematocrit was determined by light microscopy of Giemsa-stained smears.

[7] = system: P. falciparum multi-drug resistant (MDR) clone Dd2; experiment: In vitro inhibitory concentration assay, light microscopy of Giemsa-stained smears (Example 1C), clone Dd2; type: cell-based; details: Plasmodium falciparum, 10^−4 g/L, read-out: Percent of Inhibition (%, Mean ± SD) Dd2
Description: as §8, §9, §10

P. falciparum infection = experiment: Expected oral treatment of patients, standard blood film monitoring; type: in vivo, Plasmodium falciparum; details: patient, aqueous composition, total daily dosage up to about 500 mg of each active
[8] = cited from earlier work; for half-life (t1/2): in humans
[9] = Example 2E (control): artemesinin with Reb A

Structure (SMILES): CCCCN(CCCC)CC(O)c1cc(Cl)cc2c1-c1ccc(Cl)cc1/C2=C/c1ccc(Cl)cc1 (racemic) [lumefantrine, (+/−)-2-dibutylamino-1-[2,7-dichloro-9-(4-chlorobenzylidene)-9,11-fluoren-4-yl]ethanol]
elimination [1]: eliminated more slowly

Structure (SMILES): CO[C@H]1O[C@@H]2O[C@@]3(C)CC[C@H]4[C@H](C)CC[C@@H]([C@H]1C)[C@@]24OO3 [Artemether, artemether]
elimination [1]: rapidly eliminated

MIC in combination (P. falciparum DD2; [9]): 0.0081 nM
MIC (P. falciparum DD2): 0.00013 µM
Structure (SMILES): C[C@@H]1CC[C@H]2[C@@H](C)C(=O)O[C@@H]3O[C@@]4(C)CC[C@@H]1[C@]32OO4 [Artemisinin, reference compound]
solubility in water [2]: poorly soluble in water

Structure (SMILES): CCN(CC)CCCC(C)Nc1ccnc2cc(Cl)ccc12 (centres unmarked) [CQ, chloroquine]
IC50 [3]: 0.264 ± 0.012 µg/mL (≈ 0.825 µM)
IC50 ([4]; 3D7, read-out: IC50, av. 3D7 (DS)): 1.37 ± 0.12 nM
IC50 ([5]; DD2, read-out: IC50, av. Dd2 (MDR)): 22.6 ± 0.82 nM
IC50 (P. falciparum clone 3D7): 1.63 ± 0.1 nM
IC50 (P. falciparum clone Dd2): 22.1 ± 1.96 nM

IC50 ([4]; clone 3D7 (DS), Giemsa smear, read-out: IC50, av. 3D7 (DS)): 220 ± 10.2 nM
IC50 ([5]; clone Dd2 (MDR), Giemsa smear, read-out: IC50, av. Dd2 (MDR)): 376 ± 12.4 nM
MIC in combination (P. falciparum DD2; Example 2D: compound A with Reb A): 94 nM
MIC in combination (P. falciparum DD2; [9]): 376 nM
MIC (P. falciparum DD2): 0.376 µM
Structure (SMILES): C=C1C[C@@]23CC[C@H]4[C@@](C)(CCC[C@@]4(C)C(=O)OC4OC(CO)C(O)C(O)C4O)[C@@H]2CC[C@]1(OC1OC(CO)C(O)C(OC2OC(CO)C(O)C(O)C2O)C1OC1OC(CO)C(O)C(O)C1O)C3 (stereo partly drawn) [Sample No. 1, (14α)-13-[(2-O-β-D-glucopyranosyl-3-O-β-D-glucopyranosyl-β-D-glucopyranosyl)oxy]kaur-16-en-19-oic acid β-D-glucopyranosyl ester]
inhibition at 0.1 µg/mL [6]: 41.3%
inhibition at 0.1 µg/mL [7]: 56.1 ± 1.36%
expected time until P. falciparum infection is suppressed or inhibited (P. falciparum infection): 3 to 7 days
adverse hemodynamic effects or blood glucose lowering effects ([8]; at the dosages used herein): does not exhibit adverse hemodynamic effects or blood glucose lowering effects
half-life (t1/2) [8]: approximately 14 hours
solubility in water [2]: fully water soluble

Structure (SMILES): C[C@H](CC[C@@H](OC1OC(COC2OC(CO)C(O)C(O)C2O)C(O)C(O)C1OC1OC(CO)C(O)C(O)C1O)C(C)(C)O)[C@H]1CC[C@@]2(C)[C@@H]3CC=C4[C@@H](CC[C@H](OC5OC(COC6OC(CO)C(O)C(O)C6O)C(O)C(O)C5O)C4(C)C)[C@]3(C)[C@H](O)C[C@]12C (stereo partly drawn) [mogroside V, (3β,9β,10α,11α,24R)-3-[(6-O-β-D-glucopyranosyl-β-D-glucopyranosyl)oxy]-11,25-dihydroxy-9-methyl-19-norlanost-5-en-24-yl-O-β-D-glucopyranosyl-(1-2)-O-[β-D-glucopyranosyl-(1-6)]-β-D-glucopyranoside]
solubility in water [2]: fully water soluble

Structure (SMILES): C=C1C[C@@]23CC[C@H]4[C@@](C)(CCC[C@@]4(C)C(=O)O[C@@H]4O[C@H](CO)[C@@H](O)[C@H](O)[C@H]4O)[C@@H]2CC[C@]1(O[C@@H]1O[C@H](CO)[C@@H](O)[C@H](O)[C@H]1O[C@@H]1O[C@H](CO)[C@@H](O)[C@H](O)[C@H]1O)C3 [stevioside]
half-life (t1/2) [8]: approximately 14 hours
